Results on seven molecules are retold here after ChEMBL document CHEMBL5465560, “Selectivity Literature for EUbOPEN Chemogenomic Library” (2024).

Bounds are passed on as bounds.

As a reminder, the IC50 is the concentration that gives 50% inhibition.

The target of assay [1] is T1, Receptor-interacting serine/threonine-protein kinase 4 (Homo sapiens) (UniProt P57078).
T1 sequence (whole entry): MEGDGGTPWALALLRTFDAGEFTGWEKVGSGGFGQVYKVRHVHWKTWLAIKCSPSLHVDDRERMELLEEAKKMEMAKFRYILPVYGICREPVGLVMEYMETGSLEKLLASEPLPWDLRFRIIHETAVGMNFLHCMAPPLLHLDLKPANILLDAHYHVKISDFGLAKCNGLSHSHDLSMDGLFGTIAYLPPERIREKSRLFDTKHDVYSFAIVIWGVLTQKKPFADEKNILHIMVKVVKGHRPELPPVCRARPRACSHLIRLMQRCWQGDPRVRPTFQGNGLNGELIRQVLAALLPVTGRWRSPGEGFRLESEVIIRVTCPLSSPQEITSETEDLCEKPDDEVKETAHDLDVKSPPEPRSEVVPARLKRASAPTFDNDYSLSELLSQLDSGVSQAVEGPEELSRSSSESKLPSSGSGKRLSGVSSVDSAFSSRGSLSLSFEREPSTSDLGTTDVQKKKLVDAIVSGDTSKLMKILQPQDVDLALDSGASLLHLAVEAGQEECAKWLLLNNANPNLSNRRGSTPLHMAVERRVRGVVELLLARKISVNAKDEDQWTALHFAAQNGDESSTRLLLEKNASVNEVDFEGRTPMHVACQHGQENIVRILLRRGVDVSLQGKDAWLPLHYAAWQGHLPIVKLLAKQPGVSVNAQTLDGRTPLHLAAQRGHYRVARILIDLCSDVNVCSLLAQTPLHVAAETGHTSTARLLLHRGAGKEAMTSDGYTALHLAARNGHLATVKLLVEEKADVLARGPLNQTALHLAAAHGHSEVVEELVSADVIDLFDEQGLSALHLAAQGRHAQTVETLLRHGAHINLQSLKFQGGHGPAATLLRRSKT
As to the kind of experiment: Selectivity interaction (KinomeScan (DiscoverX)) EUB0000229b RIPK4. Particulars: at 10 µM.

Assay [2] has as its target Protein kinase C theta type (Homo sapiens, UniProt Q04759). Put plainly: Selectivity interaction (KinomeScan (DiscoverX)) EUB0001079a PRKCQ. Particulars: at 1 µM.
In assay [3] the target is Rho-associated protein kinase 2 (Homo sapiens, UniProt O75116). Put plainly: Selectivity interaction (Enzymatic assay) EUB0001199aCl ROCK2.
The target in assay [4] is Epithelial discoidin domain-containing receptor 1 (Homo sapiens) (UniProt Q08345). Put plainly: Selectivity interaction (Kinase panel (Invitrogen)) EUB0000639a DDR1. Particulars: at 200 nM.
Assay [5] addresses T2, Activin receptor type-1 (Homo sapiens) (UniProt Q04771).
T2 sequence (whole entry): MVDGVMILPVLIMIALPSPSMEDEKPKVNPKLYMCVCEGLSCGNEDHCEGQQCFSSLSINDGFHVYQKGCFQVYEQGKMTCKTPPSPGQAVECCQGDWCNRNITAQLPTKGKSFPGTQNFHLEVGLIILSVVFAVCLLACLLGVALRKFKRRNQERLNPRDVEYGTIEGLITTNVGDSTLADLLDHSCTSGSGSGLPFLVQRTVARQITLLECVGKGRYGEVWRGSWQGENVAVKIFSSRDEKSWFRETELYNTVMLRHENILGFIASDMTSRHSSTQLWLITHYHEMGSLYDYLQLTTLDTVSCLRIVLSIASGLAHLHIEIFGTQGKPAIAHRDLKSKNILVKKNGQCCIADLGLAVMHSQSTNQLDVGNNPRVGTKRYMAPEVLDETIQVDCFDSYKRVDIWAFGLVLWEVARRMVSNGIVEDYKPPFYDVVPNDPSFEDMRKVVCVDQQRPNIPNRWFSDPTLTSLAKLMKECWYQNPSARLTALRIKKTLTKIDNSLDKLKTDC
Particulars: at 10 µM.

Assay [6] has as its target Serine/threonine-protein kinase 16 (Homo sapiens, UniProt O75716). To be noted: at 10 µM.
Assay [7] addresses Histone-lysine N-methyltransferase SETDB1 (Homo sapiens) (UniProt Q15047). Put plainly: Selectivity interaction (Transferase panel (protein, RNA, and DNA methyltransferases. and EP300 (acetyltransferase))) EUB0000270b SETDB1.
For assay [8], the target named is Calcium/calmodulin-dependent protein kinase type 1G (Homo sapiens) (UniProt Q96NX5). As to the kind of experiment: Selectivity interaction (KinomeScan (DiscoverX)) EUB0000092b CAMK1G. To be noted: at 10 µM.
Assay [9] addresses T3, Ephrin type-A receptor 6 (Homo sapiens) (UniProt Q9UF33).
T3 sequence (whole entry): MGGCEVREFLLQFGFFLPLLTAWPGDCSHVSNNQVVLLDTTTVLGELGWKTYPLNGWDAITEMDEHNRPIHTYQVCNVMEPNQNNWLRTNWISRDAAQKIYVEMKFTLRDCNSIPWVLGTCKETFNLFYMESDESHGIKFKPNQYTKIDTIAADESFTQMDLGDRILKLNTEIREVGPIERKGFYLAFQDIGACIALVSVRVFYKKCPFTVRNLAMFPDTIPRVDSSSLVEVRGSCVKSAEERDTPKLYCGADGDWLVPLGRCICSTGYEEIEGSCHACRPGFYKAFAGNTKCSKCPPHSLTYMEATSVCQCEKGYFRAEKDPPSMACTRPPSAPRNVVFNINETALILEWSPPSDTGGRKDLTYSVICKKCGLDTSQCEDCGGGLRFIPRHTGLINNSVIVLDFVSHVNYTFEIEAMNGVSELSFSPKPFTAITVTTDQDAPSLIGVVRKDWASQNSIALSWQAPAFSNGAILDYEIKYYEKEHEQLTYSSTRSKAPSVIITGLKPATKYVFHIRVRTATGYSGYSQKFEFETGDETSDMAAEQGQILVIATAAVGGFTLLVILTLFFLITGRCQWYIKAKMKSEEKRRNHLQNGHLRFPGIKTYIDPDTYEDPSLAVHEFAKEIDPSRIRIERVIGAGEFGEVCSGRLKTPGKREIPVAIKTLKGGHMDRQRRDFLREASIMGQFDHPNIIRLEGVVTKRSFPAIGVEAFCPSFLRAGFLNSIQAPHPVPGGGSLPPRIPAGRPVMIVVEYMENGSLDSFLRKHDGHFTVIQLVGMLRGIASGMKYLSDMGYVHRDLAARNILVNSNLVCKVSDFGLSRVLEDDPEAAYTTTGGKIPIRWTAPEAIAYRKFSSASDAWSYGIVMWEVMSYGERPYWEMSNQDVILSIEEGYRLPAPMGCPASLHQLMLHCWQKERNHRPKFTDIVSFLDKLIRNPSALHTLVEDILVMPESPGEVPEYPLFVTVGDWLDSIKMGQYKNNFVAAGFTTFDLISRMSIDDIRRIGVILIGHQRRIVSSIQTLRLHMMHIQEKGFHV
Put plainly: Selectivity interaction (KinomeScan (DiscoverX)) EUB0000092b EPHA6. Particulars: at 10 µM.

The target of assay [10] is Ribosomal protein S6 kinase alpha-4 (Homo sapiens) (UniProt O75676). As to the kind of experiment: Selectivity interaction (KinomeScan (DiscoverX)) EUB0000092b RPS6KA4. To be noted: at 10 µM.
Sequence of Ribosomal protein S6 kinase alpha-4 (Homo sapiens) (O75676 whole entry, looked up): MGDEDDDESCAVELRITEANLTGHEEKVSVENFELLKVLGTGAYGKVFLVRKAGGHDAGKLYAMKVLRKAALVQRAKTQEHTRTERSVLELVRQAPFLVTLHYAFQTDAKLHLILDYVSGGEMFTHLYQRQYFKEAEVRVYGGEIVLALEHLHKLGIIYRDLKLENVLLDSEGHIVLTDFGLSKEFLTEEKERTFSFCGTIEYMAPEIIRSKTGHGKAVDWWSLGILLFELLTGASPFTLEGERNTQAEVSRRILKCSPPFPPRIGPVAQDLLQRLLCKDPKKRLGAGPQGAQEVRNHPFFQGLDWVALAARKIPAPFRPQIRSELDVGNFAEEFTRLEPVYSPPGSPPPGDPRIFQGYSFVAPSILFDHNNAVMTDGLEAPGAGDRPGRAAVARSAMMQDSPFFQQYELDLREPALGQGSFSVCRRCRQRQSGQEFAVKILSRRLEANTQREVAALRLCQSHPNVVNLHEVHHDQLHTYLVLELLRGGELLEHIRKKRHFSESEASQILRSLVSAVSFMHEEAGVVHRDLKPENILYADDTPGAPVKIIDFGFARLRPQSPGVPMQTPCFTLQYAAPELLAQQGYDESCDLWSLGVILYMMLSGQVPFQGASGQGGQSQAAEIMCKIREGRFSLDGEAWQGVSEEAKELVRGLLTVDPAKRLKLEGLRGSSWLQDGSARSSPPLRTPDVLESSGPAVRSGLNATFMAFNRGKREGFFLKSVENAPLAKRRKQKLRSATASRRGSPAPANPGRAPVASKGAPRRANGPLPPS

Sequence of Calcium/calmodulin-dependent protein kinase type 1G (Homo sapiens) (Q96NX5 whole entry): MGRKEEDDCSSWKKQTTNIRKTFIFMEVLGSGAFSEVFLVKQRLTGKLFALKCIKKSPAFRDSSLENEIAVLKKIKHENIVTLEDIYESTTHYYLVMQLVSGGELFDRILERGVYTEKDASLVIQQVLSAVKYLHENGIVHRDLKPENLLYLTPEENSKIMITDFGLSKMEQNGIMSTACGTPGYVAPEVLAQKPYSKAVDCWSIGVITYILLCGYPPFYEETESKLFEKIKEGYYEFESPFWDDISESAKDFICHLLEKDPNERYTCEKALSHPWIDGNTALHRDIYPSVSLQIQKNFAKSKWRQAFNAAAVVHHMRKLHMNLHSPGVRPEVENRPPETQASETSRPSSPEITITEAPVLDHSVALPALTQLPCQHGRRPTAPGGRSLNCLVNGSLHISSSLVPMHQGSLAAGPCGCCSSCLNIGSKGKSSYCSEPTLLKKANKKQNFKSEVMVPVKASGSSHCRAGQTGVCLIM
Sequence of Serine/threonine-protein kinase 16 (O75716 whole entry): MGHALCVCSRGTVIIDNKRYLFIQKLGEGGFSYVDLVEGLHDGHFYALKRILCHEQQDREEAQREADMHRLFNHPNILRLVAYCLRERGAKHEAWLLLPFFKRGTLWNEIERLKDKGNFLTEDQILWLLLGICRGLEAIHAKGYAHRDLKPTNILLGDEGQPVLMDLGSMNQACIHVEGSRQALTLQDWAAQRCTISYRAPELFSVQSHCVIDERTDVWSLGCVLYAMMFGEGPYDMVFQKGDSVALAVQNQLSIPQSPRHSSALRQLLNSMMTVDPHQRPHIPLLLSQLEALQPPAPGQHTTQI
Sequence of Rho-associated protein kinase 2 (O75116 whole entry, the tested form may be a part): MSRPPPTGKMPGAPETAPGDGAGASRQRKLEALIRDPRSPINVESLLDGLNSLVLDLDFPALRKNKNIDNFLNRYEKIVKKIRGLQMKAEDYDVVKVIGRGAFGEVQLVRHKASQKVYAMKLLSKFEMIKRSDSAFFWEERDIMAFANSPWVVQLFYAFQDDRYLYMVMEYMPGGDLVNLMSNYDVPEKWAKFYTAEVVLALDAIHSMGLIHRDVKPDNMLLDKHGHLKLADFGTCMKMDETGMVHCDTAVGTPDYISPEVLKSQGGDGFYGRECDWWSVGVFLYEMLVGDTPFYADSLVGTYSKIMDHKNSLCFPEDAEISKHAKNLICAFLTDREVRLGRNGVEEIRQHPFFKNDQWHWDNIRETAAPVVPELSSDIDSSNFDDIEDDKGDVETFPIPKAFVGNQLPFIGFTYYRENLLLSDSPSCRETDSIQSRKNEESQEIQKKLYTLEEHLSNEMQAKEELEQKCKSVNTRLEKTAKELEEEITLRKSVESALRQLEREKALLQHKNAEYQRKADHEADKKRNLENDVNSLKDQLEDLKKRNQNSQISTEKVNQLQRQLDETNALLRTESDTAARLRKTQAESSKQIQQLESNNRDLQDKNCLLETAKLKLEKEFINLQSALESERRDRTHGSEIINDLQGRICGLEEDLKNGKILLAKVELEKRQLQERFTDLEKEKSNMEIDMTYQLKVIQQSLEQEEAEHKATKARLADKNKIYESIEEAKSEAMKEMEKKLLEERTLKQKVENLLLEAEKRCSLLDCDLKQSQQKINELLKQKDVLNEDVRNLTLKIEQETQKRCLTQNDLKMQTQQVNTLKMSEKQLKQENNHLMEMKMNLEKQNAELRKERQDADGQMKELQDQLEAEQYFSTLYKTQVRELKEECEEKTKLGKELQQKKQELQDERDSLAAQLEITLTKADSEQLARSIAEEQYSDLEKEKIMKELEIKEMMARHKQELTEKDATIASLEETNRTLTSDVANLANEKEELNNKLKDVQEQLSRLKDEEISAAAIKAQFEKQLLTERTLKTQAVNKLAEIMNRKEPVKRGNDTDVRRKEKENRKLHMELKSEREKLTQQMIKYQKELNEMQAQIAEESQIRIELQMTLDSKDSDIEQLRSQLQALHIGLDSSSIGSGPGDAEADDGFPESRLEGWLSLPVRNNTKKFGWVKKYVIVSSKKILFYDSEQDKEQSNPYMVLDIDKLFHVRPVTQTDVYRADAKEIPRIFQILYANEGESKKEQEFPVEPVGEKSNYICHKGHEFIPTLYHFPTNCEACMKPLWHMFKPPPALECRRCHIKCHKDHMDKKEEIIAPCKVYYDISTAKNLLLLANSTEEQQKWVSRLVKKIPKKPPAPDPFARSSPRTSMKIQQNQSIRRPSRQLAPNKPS
Sequence of Protein kinase C theta type (Q04759 whole entry, looked up): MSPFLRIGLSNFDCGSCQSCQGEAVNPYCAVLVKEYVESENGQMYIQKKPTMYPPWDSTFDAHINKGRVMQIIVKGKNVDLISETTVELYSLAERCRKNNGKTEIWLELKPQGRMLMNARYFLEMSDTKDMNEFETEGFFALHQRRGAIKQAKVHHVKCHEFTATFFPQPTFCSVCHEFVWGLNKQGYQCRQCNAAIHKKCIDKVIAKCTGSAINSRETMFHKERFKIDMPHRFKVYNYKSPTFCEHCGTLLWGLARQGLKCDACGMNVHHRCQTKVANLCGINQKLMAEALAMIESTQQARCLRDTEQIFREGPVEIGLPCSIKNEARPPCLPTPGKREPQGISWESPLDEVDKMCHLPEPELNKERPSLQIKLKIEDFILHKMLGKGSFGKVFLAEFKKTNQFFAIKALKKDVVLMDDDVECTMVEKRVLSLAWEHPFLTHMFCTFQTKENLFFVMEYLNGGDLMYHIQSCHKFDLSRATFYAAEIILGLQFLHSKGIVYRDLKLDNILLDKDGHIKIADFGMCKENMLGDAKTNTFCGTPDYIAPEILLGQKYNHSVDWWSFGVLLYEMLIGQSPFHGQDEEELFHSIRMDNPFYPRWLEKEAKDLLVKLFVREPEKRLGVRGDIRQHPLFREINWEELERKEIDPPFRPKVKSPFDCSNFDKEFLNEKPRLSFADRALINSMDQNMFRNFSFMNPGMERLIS
Sequence of Epithelial discoidin domain-containing receptor 1 (Homo sapiens) (Q08345 whole entry, the tested form may be a part): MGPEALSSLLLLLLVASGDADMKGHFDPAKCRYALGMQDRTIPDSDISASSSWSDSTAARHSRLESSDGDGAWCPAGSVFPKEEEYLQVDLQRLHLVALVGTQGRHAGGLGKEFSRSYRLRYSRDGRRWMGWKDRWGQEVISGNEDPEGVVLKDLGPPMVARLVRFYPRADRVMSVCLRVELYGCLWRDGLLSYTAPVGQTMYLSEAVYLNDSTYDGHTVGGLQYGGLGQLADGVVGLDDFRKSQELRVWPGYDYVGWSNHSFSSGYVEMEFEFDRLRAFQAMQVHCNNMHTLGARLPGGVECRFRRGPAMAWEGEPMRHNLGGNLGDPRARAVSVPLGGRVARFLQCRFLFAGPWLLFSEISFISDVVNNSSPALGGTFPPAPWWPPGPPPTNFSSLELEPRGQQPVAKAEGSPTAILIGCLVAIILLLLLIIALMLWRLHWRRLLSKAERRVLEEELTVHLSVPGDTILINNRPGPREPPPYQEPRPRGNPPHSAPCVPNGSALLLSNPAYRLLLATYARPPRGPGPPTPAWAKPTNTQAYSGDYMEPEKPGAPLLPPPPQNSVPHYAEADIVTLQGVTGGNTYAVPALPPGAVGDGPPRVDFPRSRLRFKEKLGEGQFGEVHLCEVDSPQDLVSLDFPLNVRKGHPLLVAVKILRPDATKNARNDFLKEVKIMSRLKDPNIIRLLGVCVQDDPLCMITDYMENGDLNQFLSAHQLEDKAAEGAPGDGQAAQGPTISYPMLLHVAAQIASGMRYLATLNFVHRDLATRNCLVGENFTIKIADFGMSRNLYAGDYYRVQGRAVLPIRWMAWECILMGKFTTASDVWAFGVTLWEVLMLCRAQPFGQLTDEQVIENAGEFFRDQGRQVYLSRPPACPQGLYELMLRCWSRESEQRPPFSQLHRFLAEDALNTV

With `COc1cc(N(C)c2ccnc3ccc(C(F)(F)F)cc23)cc(OC)c1OC`, the % binding in assay [1] was determined as 68%.

Molecule `Nc1cnc(N2CCc3cc(S(=O)(=O)Nc4c(F)cc(Cl)cc4F)cc(N4CCCC4=O)c32)nc1` [TP-020n] had a % of control in [2] of 89%.

In assay [3], `CN1Cc2nccc(-c3cn(C)nc3-c3ccc(F)cc3)c2C1=O` registered an IC50 of 10.2 µM.

On to `CC[C@@H]1[C@H](F)C(=O)N[C@@H]1COc1nccc2cc(C(N)=O)c(OC)cc12` [ZIMLOVISERTIB], for which the % of inhibition in [4] was -1.2%.

`CCN(CC)CCCCNc1ncc2cc(-c3cc(OC)cc(OC)c3)c(NC(=O)NC(C)(C)C)nc2n1`: the % of control in [5] and in assay [6] was 100% in each case.

As for `Cc1cc(CN)cc(C)c1-c1ncn(C)c1-c1cncn1C`, the results for the % activity in [7] (at 1 µM) and in assay [7] (at 10 µM) were above 90% and above 80%, respectively.

As for `CCC(=O)N1CCN(c2ccc(-n3c(=O)ccc4cnc5ccc(-c6cnc7ccccc7c6)cc5c43)cc2C(F)(F)F)CC1`, the % of control is 74% in [8], 75% in [9] and 100% in assay [10].
